Drawing on patent US10421743B2, “Tetrahydroisoquinolines as PRMT5 inhibitors” (CTXT PTY LTD, priority 2016, dated 2019), this text covers IC50 and EC50 for three compounds.

The target of test [1] is Full-length PRMT5 enzyme co-expressed with His6-MEP50 (Homo sapiens (Human), UniProt O14744). The test can be described thus: PRMT5 Biochemical Assay (Transcreener EPIGEN methyltransferase, fluorescence polarisation). Conditions: histone H4 derived peptide substrate 1 μM, 1 μM S-Adenosyl methionine, 4 hours at 37 degree Celsius. The procedure: Compounds of the Invention may be Tested for In Vitro Activity in the Following Assay:
A histone H4 derived peptide is used as substrate (amino acid sequence: […]NH2). Full-length PRMT5 enzyme (NCBI Reference sequence NP_006100.2) was co-expressed with His6-MEP50 in insect cells and purified via Nickel immobilized metal affinity and gel filtration chromatography (“the enzyme”).
The 6 μL reactions are run in Greiner brand black 384-well low volume assay plates. All reactions contained assay buffer (phosphate buffered saline, 0.01% (v/v) Tween-20, 0.01% (w/v) albumin from chicken egg white, 1 mM Dithiothreitol, 1 μM peptide substrate, 1 μM S-Adenosyl methionine, and 15 ng/reaction enzyme, with the enzyme being omitted from negative control reactions. Compounds were added in a volume of 100 nL from dilution series prepared in DMSO, positive and negative control reactions receiving the same volume DMSO without compound. The plates were sealed with adhesive seals and incubated for 4 hours at 37 degree Celsius. Reaction progress was measured using the Transcreener™ EPIGEN methyltransferase assay (BellBrook Labs, Madison, Wis.) as recommended by the manufacturer. To each reaction 2 μL detection mix were added, containing coupling enzymes, fluorescence polarisation tracer, and AMP antibody. Plates were incubated for 90 minutes before being read on a Perkin Elmer EnVision™ plate reader in fluorescence polarisation mode. IC50 values were obtained from the raw readings by calculating percent inhibition (% I) for each reaction relative to controls on the same plate (% I=(I−CN)/(CP−CN) where CN/CP are the averages of the negative/positive reactions, respectively), then fitting the % I data vs. compound concentration [I] to % I=(A+((B−A)/(1+((C/[I])^D)))) where A is the lower asymptote, B is the upper asymptote, C is the IC50 value, and D is the slope.
In general terms: In fluorescence polarisation assays a small probe gives low polarisation when free and higher when bound to something large.

Test [2] has as its system PRMT5 (symmetrical dimethylation of arginine in TE11 cells). Kind of test: PRMT5 Biomarker Assay (symmetrical dimethylation of arginine, Di-Methyl Histone H4 Arginine 3). The test is classed as cell-based. Conditions: Homo sapiens, TE-11, 72 hours incubation, anti-Di-Methyl Histone H4 Arginine 3 antibody. On the procedure:
Compounds of the Invention may be Tested for Potency to Inhibit Symmetrical Dimethylation of Arginine in the Following Assay:
The cell line TE11 was seeded at a density of 6,000 cells per well in 96 well optical quality tissue culture plates in DME medium and 10% foetal bovine serum, and allowed to adhere for 5 hours under standard culture conditions (37 degree Celsius, 5% CO2). Compound dilutions prepared in DMSO were added to the medium, with negative control wells reserved for treatment with DMSO only and maximum inhibition controls receiving a potent PRMT5 inhibitor compound at 1 μM concentration. After incubation for 72 hours, the cells were fixed with 3.7% formaldehyde in PBS for 30 minutes at room temperature, washed with phosphate buffer saline and blocked with Odyssey blocking buffer (LI-COR, Lincoln, Nebr.). Rabbit anti-Di-Methyl Histone H4 Arginine 3 specific antibody (Epigentek) in Odyssey blocking buffer was added and incubated for 14 hours at 4 degree Celsius. After washing, anti-rabbit secondary antibody labelled with Alexa647 dye (LifeTechnologies) and Hoechst 33342 (1 μg/mL, SigmaAldrich) were added for 1 hour incubation. Plates were washed and read on a PerkinElmer Envision 2103 in fluorescence intensity scanning mode (24 scans across the well area). The plates were imaged on a PerkinElmer Phenix high content imaging platform. Using a Columbus image analysis pipeline, individual nuclei were located by Hoechst 33342 stain and the methylation level was calculated from the Alexa647-related intensity in the same area. IC50 values were obtained from the mean Alexa647-related intensity per cell by calculating percent inhibition (% I) for each well relative to controls on the same plate (% I=(I−CN)/(CP−CN) where CN/CP are the averages of the negative/maximum inhibition controls, respectively), then fitting the % I data vs. compound concentration [I] to % I=(A+((B−A)/(1+((C/[I])^D)))) where A is the lower asymptote, B is the upper asymptote, C is the IC50 value, and D is the slope.

Test [3] has as its target Full-length (FL)-PRMT5-MEP50 enzyme complex (Homo sapiens (Human), UniProt O14744). Kind of test: PRMT5-MEP50 Enzyme Methylation Assay (SAMDI). The class given is biochemical. The settings on record: 0.5 nM PRMT5-MEP50, 75 nM biotinylated H4R3(Me1) peptide, 15 μM SAM, 150 minutes at 37° C.; for pEC50: read-out: Enzyme Methylation Assay (EC50—2). The procedure: PRMT5-MEP50 Enzyme Methylation Assay
PRMT5/MEP50 biochemical assay is a direct measurement of the methylation activity of the enzyme complex on a short peptide substrate derived from the N-terminus of H4 histone. Methylation experiment is performed with recombinant protein. The assessment of inhibitory effect (IC50) of small molecules is measured by the effectiveness of the compounds to inhibit this reaction.
In this assay, the potency (IC50) of each compound was determined from a twenty-point (1:2 serial dilution; top compound concentration of 100000 nM) titration curve using the following outlined procedure. To each well of a white ProxiPlus 384 well-plate, 100 nL of compound (1% DMSO in final assay volume of 10 μL) was dispensed, followed by the addition of 8 μL of 1× assay buffer (50 mM Bicine pH 8.0, 1 mM DTT, 0.004% Tween20, 0.01% BSA) containing 0.5 nM of Full-length (FL)-PRMT5-MEP50 enzyme complex (recombinant proteins from baculovirus-transfected Sf21 cells: FL-PRMT5; MW=[…] and FL-MEP50; MW=38614). Plates were sealed and placed in a 37° C. humidified chamber for 30 minutes pre-incubation with compounds. Subsequently, each reaction was initiated by the addition of 2 μL 1× assay buffer containing 75 nM biotinylated H4R3(Me1) peptide, and 15 μM S-(5′-Adenosyl)-L-Methionine Chloride (SAM). The final reaction in each well of 10 μL consists of 0.5 nM PRMT5-MEP50,75 nM biotinylated-peptide, and 15 μM SAM. Methylation reactions were allowed to proceed for 150 minutes in a sealed plate at 37° C. Reactions were immediately quenched by the addition of 1 μL of 10% formic acid. Plates were then frozen and shipped to SAMDI™ Tech Inc. to determine the percent conversion from […]. IC50 values were determined by 7 parameters biphasic fit model plotting the percent product conversion vs. (Log10) compound concentrations.

Test [4] relates to PRMT5 (symmetric dimethylation of arginine (SDMA) in MCF-7 cells). Kind of test: PRMT5 Cell Target Engagement (TE) Assay (SDMA, high content imaging). The class given is cell-based. The settings on record: Homo sapiens, MCF7, 72 h, treated for 3 days, top compound concentration of 10000 nM. From the text:
PRMT5 Cell Target Engagement (TE) Assay
The PRMT5 TE assay is a biomarker assay for identifying compounds that inhibit symmetric dimethylation of arginine (SDMA) of PRMT5 substrates. This assay detects symmetrically dimethylated nuclear proteins using high content imaging technology. Detection of the expression of symmetrically dimethylated nucleo proteins is through a mixture of primary rabbit monoclonal antibodies to SDMA (CST 13222), which in turn recognized by an Alexafluor 488 dye-conjugated anti-rabbit IgG secondary antibody. The IN Cell Analyzer 2200 measures nuclear Alexafluor 488 fluorescent dye intensity that is directly related to the level of expression of symmetrically dimethylated nuclear proteins at the single cell level. Nuclear AF488 dye intensities are compared to the mean value for DMSO treated cells […] to report percent of inhibition for each compound-treated well.
In this assay, the cell potency (EC50) of each compound was determined from a ten point (1:3 serial dilution; top compound concentration of 10000 nM) titration curve using the following outlined procedure. Each well of a BD falcon collagen coated black/clear bottom 384-well plate was seeded with 4000 MCF-7 cells and allowed to attach for 5 hours. Media from cell plate was removed at 0.5 mm above the bottom of the plate and replaced with 30 μL of fresh media containing 1.2× compounds in 0.1% DMSO. Cells were treated for 3 days in 37° C. CO2 incubator. On day 3, cells were fixed with Cytofix, permeabilized with 0.4% Triton-X-100/Cytofix, and washed with D-PBS without Ca/Mg. Cells were blocked with Licor Odessey blocking reagent for one hour at room temperature, followed by incubation with anti-SDMA (1:1000) antibody at 4° C. overnight. 1° antibody was removed, followed by three washings with DPBS without Ca/Mg and 0.05% Tween20. Hoechst (5 μg/ml), Cell Mask deep stain (1:2000) and Alexa488-conjugated goat anti-rabbit IgG (2 μg/mL) was added for 1 hour at room temperature. A final washing step (three washes) was performed before sealing plate for imaging on In Cell Analyzer 2200. Images from analyzer were uploaded to Columbus (at WP) for image analysis. IC50 values were determined by 4 parameters robust fit of percent fluorescence units vs. (Log10) compound concentrations.

The mark [5] stands for this setting: Enzyme Methylation Assay (EC50—1, nM), first EC50 of biphasic fit.

pEC50, pIC50: −log10 of the molar value. Read-outs that look alike come from different tables or passages of the source.

Chain of Full-length PRMT5 enzyme co-expressed with His6-MEP50 (O14744 whole entry): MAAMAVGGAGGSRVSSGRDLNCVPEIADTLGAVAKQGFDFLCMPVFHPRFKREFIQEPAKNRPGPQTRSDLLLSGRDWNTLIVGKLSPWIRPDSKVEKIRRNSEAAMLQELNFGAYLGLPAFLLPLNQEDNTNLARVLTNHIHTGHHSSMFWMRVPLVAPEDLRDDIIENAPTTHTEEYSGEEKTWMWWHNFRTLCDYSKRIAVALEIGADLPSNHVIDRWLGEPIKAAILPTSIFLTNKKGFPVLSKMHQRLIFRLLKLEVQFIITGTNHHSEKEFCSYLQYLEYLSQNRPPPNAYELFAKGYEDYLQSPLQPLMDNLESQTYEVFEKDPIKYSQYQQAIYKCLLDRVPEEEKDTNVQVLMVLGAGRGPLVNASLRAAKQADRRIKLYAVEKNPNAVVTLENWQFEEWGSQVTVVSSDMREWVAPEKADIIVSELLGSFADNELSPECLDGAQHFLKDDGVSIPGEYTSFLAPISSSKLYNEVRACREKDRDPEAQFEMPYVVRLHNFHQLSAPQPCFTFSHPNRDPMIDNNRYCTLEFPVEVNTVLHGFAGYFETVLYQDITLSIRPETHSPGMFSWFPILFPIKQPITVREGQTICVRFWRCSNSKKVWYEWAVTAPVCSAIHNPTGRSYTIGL
Chain of Full-length PRMT5 enzyme co-expressed with His6-MEP50 (Q9BQA1 whole entry partner): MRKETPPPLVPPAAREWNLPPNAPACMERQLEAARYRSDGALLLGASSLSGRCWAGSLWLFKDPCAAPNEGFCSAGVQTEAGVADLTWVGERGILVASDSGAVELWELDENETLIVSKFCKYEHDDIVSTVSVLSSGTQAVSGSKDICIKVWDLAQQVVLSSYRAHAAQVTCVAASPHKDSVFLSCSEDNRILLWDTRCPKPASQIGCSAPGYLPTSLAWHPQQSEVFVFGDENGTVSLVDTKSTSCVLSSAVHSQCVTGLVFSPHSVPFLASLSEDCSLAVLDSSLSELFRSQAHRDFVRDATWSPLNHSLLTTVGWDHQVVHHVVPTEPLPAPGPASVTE
Chain of Full-length (FL)-PRMT5-MEP50 enzyme complex (O14744 whole entry): as the sequence (O14744 whole entry) above
Chain of Full-length (FL)-PRMT5-MEP50 enzyme complex (Q9BQA1 whole entry partner): as the sequence (Q9BQA1 whole entry partner) above

Turning to `COc1ccc2c(c1)CN[C@H]([C@H](O)CNC(=O)c1ccc(C(=O)N3C4CCC3COC4)cc1)C2` [Example 2, 4-(3-Oxa-8-azabicyclo[3.2.1]octane-8-carbonyl)-N—((R)-2-hydroxy-2-((S)-7-methoxy-1,2,3,4-tetrahydroisoquinolin-3-yl)ethyl)benzamide], the pIC50 in test [1] is 7.74; in test [2], 9.40. Further, the response in test [3] (setting [5]) was half-maximal at 0.62 nM (EC50). In addition, the pEC50 in test [3] (second EC50 of biphasic fit) was 6.90; in test [4], 7.77.

Turning to `CCOc1cc(C(=O)N2C3CCC2COC3)ccc1C(=O)NC[C@@H](O)[C@@H]1Cc2ccccc2CN1C` [Example 3, 4-(3-Oxa-8-azabicyclo[3.2.1]octane-8-carbonyl)-2-ethoxy-N—((R)-2-hydroxy-2-((S)-2-methyl-1,2,3,4-tetrahydroisoquinolin-3-yl)ethyl)benzamide 2,2,2-trifluoroacetate], the values for the pIC50 in test [1] and in test [2] were 6.00 and 8.15, respectively. For the same compound, in test [3] (setting [5]), a half-maximal response (EC50) required 47 nM. In addition, the pEC50 in test [3] (second EC50 of biphasic fit) was 6.24; in test [4] it was 5.26.

Consider `CCOc1cc(C(=O)N2C3CCC2COC3)ccc1C(=O)NC[C@@H](O)[C@@H]1Cc2ccc(OC)cc2CN1` [Example 1, 4-(3-Oxa-8-azabicyclo[3.2.1]octane-8-carbonyl)-2-ethoxy-N—((R)-2-hydroxy-2-((S)-7-methoxy-1,2,3,4-tetrahydroisoquinolin-3-yl)ethyl)benzamide], for which the negative-log IC50 (pIC50) in test [1] was 7.82; in test [2], 9.72. The EC50 in test [3] (setting [5]) is 0.27 nM; in test [3] (Enzyme Methylation Assay (EC50—2, nM), second EC50 of biphasic fit) it was 5 nM. The negative logarithm of the EC50 (pEC50) in test [4] is 7.72.

One may read the pIC50 as the negative decadic logarithm of the IC50, by convention in mol/L. The low end stands for a high IC50, the high end for a low IC50. A word on the EC50: it is the concentration that produces a half-maximal response. The pEC50 is the negative decadic logarithm of the EC50, by convention in mol/L.
